From US7868204B2, “Inhibitors of histone deacetylase” (MethylGene Inc., priority 2001, dated 2011)

Columns and labels:
HCT116 cells = experiment: MTT assay; type: cell-based; details: Homo sapiens, HCT-116, 72 h, Table 5F; HCT116 cells, 72 hours
Method in brief: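 Cells plated one day before dosing, then exposed to compound 72 h at 37 °C, 5% CO2. MTT at 0.5 mg/ml final for 4 h, solubilized in DMF/SDS buffer pH 4.7; OD converted to cell number from a standard growth curve.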

[1] = test system: acetylated histone H-4 in T24 human bladder cancer cells; experiment: Histone H4 acetylation in whole cells by immunoblots; type: cell-based; details: T-24, Table 5F, 16 h, read-out: H4 Ac (T24) EC50
Method in brief: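 T24 cells were treated with HDAC inhibitors for 16 h; […] total histone protein was resolved by SDS/PAGE and immunoblotted with polyclonal anti-acetylated H4 antibody. ECL detection, with signal quantified by densitometry.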

[2] = target: T1, cloned recombinant human HDAC-1 (Homo sapiens, UniProt Q13547); experiment: Human HDAC-1 enzyme inhibition, Assay 1 ([3H]-acetylated histone substrate, scintillation counting); type: biochemical; details: Table 5F; read-out: Human HDAC-1 IC50
T1 construct: made in house; host or cells: Baculovirus insect cell expression system
Method in brief: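 Recombinant human HDAC-1 from baculovirus-infected insect cells, preincubated with compound 30 min at 4° C. before reaction. Released [3H]-acetic acid extracted with ethyl acetate and counted by scintillation. IC50 taken from dose-response curves as concentration giving half-maximal inhibition.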

T1 sequence (Q13547 whole entry): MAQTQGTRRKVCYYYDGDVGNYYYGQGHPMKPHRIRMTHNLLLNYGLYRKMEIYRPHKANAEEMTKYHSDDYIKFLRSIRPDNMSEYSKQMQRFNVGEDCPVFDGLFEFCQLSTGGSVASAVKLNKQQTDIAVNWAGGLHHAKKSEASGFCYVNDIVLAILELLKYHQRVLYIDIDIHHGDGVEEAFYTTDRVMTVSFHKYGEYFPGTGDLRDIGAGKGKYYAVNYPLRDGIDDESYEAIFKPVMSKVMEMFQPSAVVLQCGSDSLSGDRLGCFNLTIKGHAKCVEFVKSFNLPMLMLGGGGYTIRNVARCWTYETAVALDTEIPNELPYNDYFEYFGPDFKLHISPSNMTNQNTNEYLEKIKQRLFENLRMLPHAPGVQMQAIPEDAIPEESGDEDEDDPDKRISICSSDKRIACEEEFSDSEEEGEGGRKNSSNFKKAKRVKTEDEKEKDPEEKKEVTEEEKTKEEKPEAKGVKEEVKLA

Row | SMILES | IC50 (HCT116 cells) [nM] | EC50 [1] [nM] | IC50 [2] [µM]
1 | COc1cc(OC)cc(OCc2ccc(C(=O)Nc3ccccc3N)cc2)c1 [Cpd 395, N-(2-Amino-phenyl)-4-(3,5-dimethoxy-phenoxymethyl)-benzamide] | 1000 | 5000 | 2
2 | Nc1ccccc1NC(=O)c1ccc(COc2ccc3ccccc3n2)cc1 [Cpd 396, N-(2-Amino-phenyl)-4-(quinolin-2-yloxymethyl)-benzamide] | 700 | 5000 | 2
3 | Nc1ccccc1NC(=O)c1ccc(CNc2ccc3c(c2)OCCO3)cc1 [Cpd 400, N-(2-Amino-phenyl)-4-[(2,3-dihydro-benzo[1,4]dioxin-6-ylamino)-methyl]-benzamide] | 300 | 2000 | 8
4 | CC(=O)Nc1ccc(NCc2ccc(C(=O)Nc3ccccc3N)cc2)cc1 [Cpd 401, 4-[(4-Acetylamino-phenylamino)methyl]-N-(2-amino-phenyl)-benzamide] | 300 | 2000 | 6
5 | Nc1ccccc1NC(=O)c1ccc(CNc2ccc(N3CCOCC3)cc2)cc1 [Cpd 402, N-(2-Amino-phenyl)-4-[(4-morpholin-4-yl-phenylamino)-methyl]-benzamide] | 400 | 1000 | 14
6 | COc1cc(C#N)c(NCc2ccc(C(=O)Nc3ccccc3N)cc2)cc1OC [Cpd 404] | 600 | 5000 | 3
7 | COc1ccc(NCc2ccc(C(=O)Nc3ccccc3N)cc2)cc1OCc1cccnc1 [Cpd 405] | 1000 | 5000 | 5
8 | Nc1ccccc1NC(=O)c1ccc(NCc2cccc(F)c2)cc1 [Cpd 416, N-(2-Amino-phenyl)-4-(3-fluoro-benzylamino)-benzamide] | 600 | 1000 | 3

Second part, the compound after the results:

Row | IC50 (HCT116 cells) [nM] | EC50 [1] [nM] | IC50 [2] [µM] | SMILES
9 | 600 | 4000 | 1 | COc1cc(NCc2ccc(C(=O)Nc3ccccc3N)cc2)cc(OC)c1 [Cpd 397, N-(2-Amino-phenyl)-4-[(3,5-dimethoxy-phenylamino)-methyl]-benzamide]
10 | 200 | 1000 | 1 | COc1ccc(NCc2ccc(C(=O)Nc3ccccc3N)cc2)c(C)c1 [Cpd 403, N-(2-Amino-phenyl)-4-[(4-methoxy-2-methyl-phenylamino)-methyl]-benzamide]
11 | 100 | > 5000 | 0.9 | Cc1cc(C)c(NCc2ccc(C(=O)Nc3ccccc3N)cc2)c(C)c1 [Cpd 410, N-(2-Amino-phenyl)-4-[(2,4,6-trimethyl-phenylamino)-methyl]-benzamide]
12 | 2000 | 3000 | 2 | Nc1ccccc1NC(=O)c1ccc(NCc2ccc(F)cc2)cc1 [Cpd 413, N-(2-Amino-phenyl)-4-(4-fluoro-benzylamino)-benzamide]
13 | 1000 | 1000 | 3 | COc1ccc(CNc2ccc(C(=O)Nc3ccccc3N)cc2)cc1 [Cpd 414, N-(2-Amino-phenyl)-4-(4-methoxy-benzylamino)-benzamide]
14 | 1000 | 3000 | 3 | Nc1ccccc1NC(=O)c1ccc(CNc2ccc(F)cc2)cc1 [Cpd 415, N-(2-Amino-phenyl)-4-[(4-fluoro-phenylamino)-methyl]-benzamide]
15 | 1000 | 1000 | 3 | Nc1ccccc1NC(=O)c1ccc(CNc2cccc(F)c2)cc1 [Cpd 417, N-(2-Amino-phenyl)-4-[(3-fluoro-phenylamino)-methyl]-benzamide]
16 | 900 | 2000 | 3 | Cc1cc(Cl)nc(NCc2ccc(C(=O)Nc3ccccc3N)cc2)n1 [Cpd 418, N-(2-Amino-phenyl)-4-[(4-chloro-6-methyl-pyrimidin-2-ylamino)-methyl]-benzamide]
17 | 1000 | 5000 | 2 | Nc1ccccc1NC(=O)c1ccc(CNc2nc(Cl)cc(Cl)n2)cc1 [Cpd 419, N-(2-Amino-phenyl)-4-[(4,6-dichloro-pyrimidin-2-ylamino)-methyl]-benzamide]
